According to patent US7300764B2, “Method for identifying agonists and antagonists of the GPR45-like/GPR63 receptor” (Sanofi-Aventis Deutschland GmbH, priority 2002, dated 2007):

Assays:
[1] = target: T1, GPR45 like/GPR63 receptor (Homo sapiens, UniProt Q9BZJ6); experiment: FLIPR assay, stimulation of intracellular Ca2+ release in transfected CHO cells; type: cell-based; set-up: The PCR fragment with a length of 1,260 base pairs which was formed by the PCR described above was incorporated; expressed in transfected cells; host or cells: CHO-K1 cells, transient transfection with Lipofectamine; settings: final concentration of 1 μM; CHO cells expressing GPR45 like/GPR63 receptor and G protein α subunit delta 6qi4mgr
T1 sequence (Q9BZJ6 whole entry, the tested form may be a part): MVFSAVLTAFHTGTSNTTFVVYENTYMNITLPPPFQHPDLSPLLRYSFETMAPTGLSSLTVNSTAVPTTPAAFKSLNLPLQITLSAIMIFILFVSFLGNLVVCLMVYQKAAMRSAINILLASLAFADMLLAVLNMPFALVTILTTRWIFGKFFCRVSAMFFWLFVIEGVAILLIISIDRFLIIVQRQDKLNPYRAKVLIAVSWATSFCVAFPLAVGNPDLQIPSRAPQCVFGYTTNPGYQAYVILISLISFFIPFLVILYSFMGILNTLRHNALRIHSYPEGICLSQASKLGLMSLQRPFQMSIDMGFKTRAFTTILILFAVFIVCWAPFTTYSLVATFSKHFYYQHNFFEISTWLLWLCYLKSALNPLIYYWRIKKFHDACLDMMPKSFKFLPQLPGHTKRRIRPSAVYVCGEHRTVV
Experimental: CHO-K1 cells were cultivated in basal Iscove's medium with further additions. Iscove's medium is commercially available from, for example, Biochrom, Berlin. The composition was described for the first time in N. N. Iscove and F. Melchers, Journal of Experimental Medicine 147, 923-933 (1978). 10% fetal bovine serum, 10 000 U/ml-10 000 μg/ml penicillin-streptomycin, gentamycin, and 2 mM L-glutamine were used as further additions to Iscove's medium. The cells were incubated at 37° C. with a 5% CO2 atmosphere.
About 2×10^5 CHO-K1 cells were seeded in 35 mm dishes for the transient transfection. After further incubation for about 24 hours and with the cells at about 50-80% confluence, the cells were transiently transfected with 1 μg of the plasmid DNA construct with the assistance of Lipofectamine (Gibco).
About 16 to 18 hours after the transfection, the CHO cells were put in an amount of about 80,000 cells per well in 96-well plates and incubated further for about 18-24 hours. […]
After the last washing step, 100 μl were left on the cells in each well. […] A 60 μM solution was kept ready on a 96-well microtiter plate. […]
The fluorescence was measured by a Fluorometric Imaging Plate Reader (FLIPR®, Molecular Devices, Sunnyvale, Calif.) for 1 min in intervals lasting 1 sec and for a further 2 min in 3-second intervals. […]

[2] = target: T1, GPR45 like/GPR63 receptor; experiment: Cell growth assay in transfected CHO cells; type: cell-based; set-up: The PCR fragment with a length of 1,260 base pairs which was formed by the PCR described above was incorporated; expressed in transfected cells; host or cells: CHO cells, transient transfection with Lipofectamine; settings: 1 μM S1P, 48 hours, Iscove's medium with 10% dialyzed fetal calf serum, average of 2 independent tests
Experimental: CHO cells were put in an amount of 8×10^4 cells into 35 mm plates. After 32 hours, the cells were transfected with 1 μg of the plasmid construct using Lipofectamine (Gibco). After a further 13 hours (time 0), the cells were washed with PBS and incubated in Iscove's medium which contained 10% dialyzed fetal calf serum for 48 hours (time 48), specifically in the presence or absence of 1 μM S1P (sphingosine 1-phosphate).
The number of cells at time 0 and time 48 was determined by counting. This was done by first treating the cells with trypsin and then suspending them in 1 ml of Iscove's. An amount of 100 μl of these cells was diluted in 10 ml of buffer and counted in a cell counter, e.g. in the Casy Cellcounter TT (Cell Counter und Analysesystem, Schärfe, Reutlingen).
An amount of 8×10^4 CHO cells was seeded onto 35 mm plates. The cells were transfected after 32 hours with 1 μg of DNA of the vector construction. After 13 hours, the cells were washed once with PBS and incubated in Iscove's medium containing 10% dialyzed fetal calf serum in the presence or absence of 1 μM S1P for a further 48 hours.

more cells (cell number vs absence of S1P) [2] | Compound | Ca^2+ influx [1]
about 20% | CCCCCCCCCCCCC/C=C/[C@@H](O)[C@@H](N)COP(=O)(O)O [S1P, sphingosine 1-phosphate] | led to a measurable Ca^2+ influx
 | CCCCCCCCCCCCCCC[C@@H](O)[C@@H](N)COP(=O)(O)O [DHS1P, dihydrosphingosine 1-phosphate] | led to a measurable Ca^2+ influx
